Test results taken from ChEMBL document CHEMBL1156106 (J Med Chem, 2009).

Key:
Rattus norvegicus [1] = assay: Effect on behavioural activity in rat assessed as cocaine-induced lever response at 50 mg/kg, ip pretreated with cocaine for 240 mins by drug-discrimination studies; format: functional; details: route intraperitoneal
Mus musculus [2] = assay: Antidepressant activity in ip dosed mouse assessed as stimulation of locomotor activity relative to cocaine; format: functional
Rattus norvegicus [3] = assay: Effect on behavioural activity in rat assessed as cocaine-induced lever response at 25 mg/kg, ip pretreated with cocaine for 240 mins by drug-discrimination studies; format: functional; details: route intraperitoneal
Mus musculus [4] = assay: Antidepressant activity in ip dosed mouse assessed as time to reach peak stimulation of locomotor activity; format: functional
Mus musculus [5] = assay: Antidepressant activity in ip dosed mouse assessed as stimulation of locomotor activity; format: functional
Mus musculus [6] = assay: Antidepressant activity in ip dosed mouse assessed as duration of locomotor activity; format: functional
[7] = target: T1, Sodium-dependent serotonin transporter (Homo sapiens, UniProt P31645); assay: Inhibition of [3H]serotonin reuptake at human SERT expressed in HEK293 cells; format: cell-based
T1 sequence (P31645 whole entry): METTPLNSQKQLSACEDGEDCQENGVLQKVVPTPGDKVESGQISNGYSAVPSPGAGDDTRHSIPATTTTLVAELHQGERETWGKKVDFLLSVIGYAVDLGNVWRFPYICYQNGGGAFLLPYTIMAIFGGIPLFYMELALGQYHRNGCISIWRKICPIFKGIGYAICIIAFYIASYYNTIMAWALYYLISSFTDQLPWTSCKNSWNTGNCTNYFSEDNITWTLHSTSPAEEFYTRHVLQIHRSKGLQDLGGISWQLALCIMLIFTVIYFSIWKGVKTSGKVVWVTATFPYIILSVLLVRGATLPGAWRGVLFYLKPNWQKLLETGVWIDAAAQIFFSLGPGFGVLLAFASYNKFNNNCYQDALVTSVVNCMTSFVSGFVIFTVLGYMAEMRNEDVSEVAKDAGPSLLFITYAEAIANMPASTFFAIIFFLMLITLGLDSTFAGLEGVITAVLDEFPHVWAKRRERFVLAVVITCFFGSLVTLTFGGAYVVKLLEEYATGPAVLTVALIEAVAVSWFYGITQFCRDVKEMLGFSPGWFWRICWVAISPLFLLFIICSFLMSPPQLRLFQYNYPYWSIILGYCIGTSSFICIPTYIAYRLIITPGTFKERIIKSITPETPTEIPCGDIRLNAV

Rattus norvegicus [8] = assay: Effect on behavioural activity in rat assessed as cocaine-induced lever response at 25 mg/kg, ip pretreated with cocaine for 335 mins by drug-discrimination studies; format: functional; details: route intraperitoneal
Rattus norvegicus [9] = assay: Effect on behavioural activity in rat assessed as cocaine-induced lever response at 10 mg/kg, ip pretreated with cocaine for 335 mins by drug-discrimination studies; format: functional; details: route intraperitoneal
Rattus norvegicus [10] = assay: Effect on behavioural activity in rat assessed as cocaine-induced lever response at 100 mg/kg, ip pretreated with cocaine for 335 mins by drug-discrimination studies; format: functional; details: route intraperitoneal
Rattus norvegicus [11] = assay: Effect on behavioural activity in rat assessed as cocaine-induced lever response at 50 mg/kg, ip pretreated with cocaine for 335 mins by drug-discrimination studies; format: functional; details: route intraperitoneal
Rattus norvegicus [12] = assay: Effect on behavioural activity in rat assessed as cocaine-induced lever response at 10 mg/kg, po pretreated with cocaine for 360 mins by drug-discrimination studies; format: functional
Rattus norvegicus [13] = assay: Effect on behavioural activity in rat assessed as cocaine-induced lever response at 50 mg/kg, po pretreated with cocaine for 45 mins by drug-discrimination studies; format: functional
Rattus norvegicus [14] = assay: Effect on behavioural activity in rat assessed as cocaine-induced lever response at 2.5 mg/kg, po pretreated with cocaine for 180 mins by drug-discrimination studies; format: functional
Rattus norvegicus [15] = assay: Effect on behavioural activity in rat assessed as cocaine-induced lever response at 5 mg/kg, po pretreated with cocaine for 90 mins by drug-discrimination studies; format: functional
Rattus norvegicus [16] = assay: Effect on behavioural activity in rat assessed as cocaine-induced lever response at 2.5 mg/kg, po pretreated with cocaine for 45 mins by drug-discrimination studies; format: functional
Rattus norvegicus [17] = assay: Effect on behavioural activity in rat assessed as cocaine-induced lever response at 25 mg/kg, po pretreated with cocaine for 90 mins by drug-discrimination studies; format: functional
[18] = target: T1, Sodium-dependent serotonin transporter; assay: biochemical; format: cell-based, HEK293
Rattus norvegicus [19] = assay: Effect on behavioural activity in rat assessed as cocaine-induced lever response at 50 mg/kg, po pretreated with cocaine for 90 mins by drug-discrimination studies; format: functional
Rattus norvegicus [20] = assay: Effect on behavioural activity in rat assessed as cocaine-induced lever response at 10 mg/kg, po pretreated with cocaine for 90 mins by drug-discrimination studies; format: functional
Rattus norvegicus [21] = assay: Effect on behavioural activity in rat assessed as cocaine-induced lever response at 2.5 mg/kg, po pretreated with cocaine for 90 mins by drug-discrimination studies; format: functional
Rattus norvegicus [22] = assay: Effect on behavioural activity in rat assessed as cocaine-induced lever response at 50 mg/kg, ip pretreated with cocaine for 30 mins by drug-discrimination studies; format: functional; details: route intraperitoneal
Rattus norvegicus [23] = assay: Effect on behavioural activity in rat assessed as cocaine-induced lever response at 10 mg/kg, po pretreated with cocaine for 45 mins by drug-discrimination studies; format: functional
Rattus norvegicus [24] = assay: Effect on behavioural activity in rat assessed as cocaine-induced lever response at 100 mg/kg, po pretreated with cocaine for 360 mins by drug-discrimination studies; format: functional
Rattus norvegicus [25] = assay: Effect on behavioural activity in rat assessed as cocaine-induced lever response at 25 mg/kg, po pretreated with cocaine for 180 mins by drug-discrimination studies; format: functional
Rattus norvegicus [26] = assay: Effect on behavioural activity in rat assessed as cocaine-induced lever response at 5 mg/kg, po pretreated with cocaine for 180 mins by drug-discrimination studies; format: functional
Rattus norvegicus [27] = assay: Effect on behavioural activity in rat assessed as cocaine-induced lever response at 25 mg/kg, po pretreated with cocaine for 45 mins by drug-discrimination studies; format: functional
Rattus norvegicus [28] = assay: Effect on behavioural activity in rat assessed as cocaine-induced lever response at 10 mg/kg, ip pretreated with cocaine for 30 mins by drug-discrimination studies; format: functional; details: route intraperitoneal
Rattus norvegicus [29] = assay: Effect on behavioural activity in rat assessed as cocaine-induced lever response at 100 mg/kg, po pretreated with cocaine for 45 mins by drug-discrimination studies; format: functional
Rattus norvegicus [30] = assay: Effect on behavioural activity in rat assessed as cocaine-induced lever response at 50 mg/kg, po pretreated with cocaine for 360 mins by drug-discrimination studies; format: functional
Rattus norvegicus [31] = assay: Effect on behavioural activity in ip dosed rat assessed as cocaine-induced lever response pretreated with cocaine by drug-discrimination studies; format: functional
Rattus norvegicus [32] = assay: Effect on behavioural activity in po dosed rat assessed as cocaine-induced lever response pretreated with cocaine by drug-discrimination studies; format: functional
Rattus norvegicus [33] = assay: Effect on behavioural activity in rat assessed as cocaine-induced lever response at 100 mg/kg, po pretreated with cocaine for 90 mins by drug-discrimination studies; format: functional
Rattus norvegicus [34] = assay: Effect on behavioural activity in rat assessed as cocaine-induced lever response at 25 mg/kg, po pretreated with cocaine for 360 mins by drug-discrimination studies; format: functional
Rattus norvegicus [35] = assay: Effect on behavioural activity in rat assessed as cocaine-induced lever response at 10 mg/kg, po pretreated with cocaine for 180 mins by drug-discrimination studies; format: functional
Rattus norvegicus [36] = assay: Effect on behavioural activity in rat assessed as cocaine-induced lever response at 50 mg/kg, po pretreated with cocaine for 180 mins by drug-discrimination studies; format: functional
Rattus norvegicus [37] = assay: Effect on behavioural activity in rat assessed as cocaine-induced lever response at 2.5 mg/kg, po pretreated with cocaine for 360 mins by drug-discrimination studies; format: functional
[38] = target: Sodium-dependent noradrenaline transporter (Homo sapiens, UniProt P23975); assay: Displacement of [125I]RTI55 from cloned human NET expressed in HEK293 cells; format: cell-based
Sodium-dependent noradrenaline transporter, sequence (P23975 whole entry): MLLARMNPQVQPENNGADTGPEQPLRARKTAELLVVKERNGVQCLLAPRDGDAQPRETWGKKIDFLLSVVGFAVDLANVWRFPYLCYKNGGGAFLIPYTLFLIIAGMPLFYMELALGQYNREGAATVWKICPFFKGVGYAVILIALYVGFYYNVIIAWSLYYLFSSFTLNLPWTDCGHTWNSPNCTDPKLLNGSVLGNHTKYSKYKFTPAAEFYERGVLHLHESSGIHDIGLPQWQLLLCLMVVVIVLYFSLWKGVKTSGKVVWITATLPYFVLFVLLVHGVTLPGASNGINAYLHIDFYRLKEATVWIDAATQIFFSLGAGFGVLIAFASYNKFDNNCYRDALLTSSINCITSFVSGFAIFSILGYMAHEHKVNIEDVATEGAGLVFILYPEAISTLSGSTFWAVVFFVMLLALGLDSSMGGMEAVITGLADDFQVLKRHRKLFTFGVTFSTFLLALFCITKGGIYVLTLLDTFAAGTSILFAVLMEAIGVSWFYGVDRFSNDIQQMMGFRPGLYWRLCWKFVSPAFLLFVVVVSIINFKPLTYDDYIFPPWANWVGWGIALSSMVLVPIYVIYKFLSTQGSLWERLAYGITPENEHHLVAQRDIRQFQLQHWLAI

Rattus norvegicus [39] = assay: Effect on behavioural activity in rat assessed as cocaine-induced lever response at 100 mg/kg, po pretreated with cocaine for 180 mins by drug-discrimination studies; format: functional
Rattus norvegicus [40] = assay: Effect on behavioural activity in rat assessed as cocaine-induced lever response at 5 mg/kg, po pretreated with cocaine for 360 mins by drug-discrimination studies; format: functional
Rattus norvegicus [41] = assay: Effect on behavioural activity in rat assessed as cocaine-induced lever response at 5 mg/kg, po pretreated with cocaine for 45 mins by drug-discrimination studies; format: functional
Rattus norvegicus [42] = assay: Effect on behavioural activity in rat assessed as cocaine-induced lever response at 2.5 mg/kg, ip pretreated with cocaine for 30 mins by drug-discrimination studies; format: functional; details: route intraperitoneal
Rattus norvegicus [43] = assay: Effect on behavioural activity in rat assessed as cocaine-induced lever response at 50 mg/kg, ip pretreated with cocaine for 50 mins by drug-discrimination studies; format: functional; details: route intraperitoneal
Rattus norvegicus [44] = assay: Effect on behavioural activity in rat assessed as cocaine-induced lever response at 100 mg/kg, ip pretreated with cocaine for 50 mins by drug-discrimination studies; format: functional; details: route intraperitoneal

CC(NC(C)(C)C)C(=O)c1ccc(Cl)c(Cl)c1 (stereo unspecified)
Activity (Rattus norvegicus [1]): 22.4% | Activity (Mus musculus [2]): 61% | Activity (Rattus norvegicus [3]): 16.7% | Time to peak locomotor stimulation (Mus musculus [4]): 270 min | ED50 (Mus musculus [5]): 26.9 mg/kg | Time (Mus musculus [6]): 140 min | IC50 [7]: > 10 µM

CC(C(=O)c1cccc(Cl)c1)N1CCCCC1 (stereo unspecified)
Activity (Rattus norvegicus [8]): 16.5% | Activity (Rattus norvegicus [9]): 7% | Activity (Rattus norvegicus [10]): 33.7% | Activity (Mus musculus [2]): 45% | Time to peak locomotor stimulation (Mus musculus [4]): 320 min | ED50 (Mus musculus [5]): 34.7 mg/kg | Time (Mus musculus [6]): 30 min | Activity (Rattus norvegicus [11]): 32.7%

CC(NC(C)(C)C)C(=O)c1cc(F)cc(F)c1 (stereo unspecified)
Activity (Rattus norvegicus [12]): 3% | Activity (Rattus norvegicus [13]): 67% | Activity (Rattus norvegicus [14]): 0% | Activity (Rattus norvegicus [15]): 7% | Activity (Rattus norvegicus [16]): 0% | Activity (Rattus norvegicus [17]): 25% | Ki [18]: > 10 µM | Activity (Rattus norvegicus [19]): 58% | Activity (Rattus norvegicus [20]): 33% | Activity (Rattus norvegicus [21]): 20% | Activity (Rattus norvegicus [22]): 83.3% | Activity (Rattus norvegicus [23]): 0% | Activity (Rattus norvegicus [24]): 0% | Activity (Mus musculus [2]): 84% | Activity (Rattus norvegicus [25]): 0% | Activity (Rattus norvegicus [26]): 0% | Time to peak locomotor stimulation (Mus musculus [4]): 0 min | ED50 (Mus musculus [5]): 35 mg/kg | Activity (Rattus norvegicus [27]): 4% | Activity (Rattus norvegicus [28]): 16.7% | Activity (Rattus norvegicus [29]): 18% | Time (Mus musculus [6]): 280 min | Activity (Rattus norvegicus [30]): 0% | ED50 (Rattus norvegicus [31]): 7.8 mg/kg | ED50 (Rattus norvegicus [32]): 41.5 mg/kg | Activity (Rattus norvegicus [33]): 84% | Activity (Rattus norvegicus [34]): 7% | Activity (Rattus norvegicus [35]): 0% | Activity (Rattus norvegicus [36]): 20% | Activity (Rattus norvegicus [37]): 0% | Ki [38]: > 10 µM | Activity (Rattus norvegicus [39]): 17% | Activity (Rattus norvegicus [40]): 0% | Activity (Rattus norvegicus [41]): 31% | Activity (Rattus norvegicus [42]): 0%

Cc1cc(C(=O)C(C)NC(C)(C)C)ccc1Br (stereo unspecified)
Activity (Mus musculus [2]): 36% | Time to peak locomotor stimulation (Mus musculus [4]): 50 min | ED50 (Mus musculus [5]): 12.6 mg/kg | Activity (Rattus norvegicus [43]): 16.7% | Activity (Rattus norvegicus [44]): 66.9% | Time (Mus musculus [6]): 240 min
